Assay results published in patent publication US20240024298A1, “COMPOSITIONS AND METHODS FOR THE TREATMENT OF HPV-ASSOCIATED DISEASE STATES” (Children's Hospital Medical Center, priority 2022, published 2024).

Legend:
Type in all cases: cell-based
[1] = tested on: HPV+ keratinocytes grown into organotypic epithelial rafts; test: EdU proliferation in HPV+ organotypic epithelial rafts
Method: (§1) On raft day 14, the tissues were harvested and lysed with RIPA buffer to extract protein for western blotting. […] Beta-actin was used to show equal protein loading. (B) HPV− and HPV+ rafts were treated with increasing doses of OSMI-1, an inhibitor of OGT activity, from day 8 to day 14 of the raft culturing protocol. EdU, a thymidine analog that incorporates into DNA during DNA synthesis, was added to the media on day 13. 24 h later, on raft day 14, tissues were fixed in PFA for paraffin-embedding, sectioning, and immunofluorescence (IF) staining. Representative IF images are shown with nuclei stained with DAPI (blue), and proliferating cells visualized with click chemistry to detect EdU incorporation (pink). Quantification of the number of EdU+ cells per field is shown to the right. […] 2-way ANOVA was used to determine significance. Representative images shown. n=3.
(§2) Representative IF images are shown with nuclei stained with DAPI (blue), proliferating cells visualized with click chemistry to detect EdU incorporation (white), basal cell layer keratinocytes stained with collagen 17A (COL17A; green) and differentiated layer keratinocytes stained with keratin 10 (K10; red). Quantifications of the total (top graph) and suprabasal (lower graph) number of EdU+ cells per field are shown to the right. […] 2-way ANOVA was used to determine significance. Representative images shown. n=3.

[2] = tested on: HPV− keratinocytes grown into organotypic epithelial rafts; test: EdU proliferation in HPV− organotypic epithelial rafts
Method: as §1, §2

[3] = tested on: HPV+ keratinocytes 3D spheroids; test: 3D spheroid area, brightfield microscopy; conditions: HPV+ spheres, culture day 4, n=4
Method: FIG. 3 (A) HPV+ and HPV− keratinocytes were seeded in round-bottom plates to form 3D spheroids (Day 0). 48 h after plating the cells (Day 2), increasing doses of Eliglustat were added to the media. 48 h after adding the drug treatment (Day 4), spheroids were imaged with brightfield microscopy and images quantified for sphere area. n=4. (B) Quantification of sphere area on culture day 4 after treatment with increasing doses of Eliglustat for 48 h.

[4] = increasing doses of Eliglustat, raft day 8 to day 14, EdU added day 13, n=3
[5] = 6.25 uM OSMI-1, treated raft day 8 to day 14, EdU added day 13, n=3
[6] = 25 uM OSMI-1 (highest dose tested), raft day 8 to day 14

Question: Which “Proliferation (total and suprabasal number of EdU+ cells per field)” value [1, 4] does the source give for CCCCCCCC(=O)N[C@H](CN1CCCC1)[C@H](O)c1ccc2c(c1)OCCO2 [Eliglustat] here?
Answer: significantly decreased with increasing dose

Question: And the “Proliferation (total and suprabasal number of EdU+ cells per field)” value [2, 4]?
Answer: no significant effect on proliferation

Question: And the Sphere area ([3]; 25 uM Eliglustat (highest dose tested), 48 h)?
Answer: significantly reduce HPV+ sphere area to that of HPV− spheres

Question: And the Sphere area ([3]; increasing doses of Eliglustat for 48 h)?
Answer: decreased concomitantly with increasing Eliglustat dose

Question: How did the “Proliferation (number of EdU+ cells per field)” value [1, 5] turn out when COc1ccccc1[C@@H](NS(=O)(=O)c1ccc2[nH]c(=O)ccc2c1)C(=O)N(Cc1ccco1)Cc1cccs1 [OSMI-1] was run?
Answer: significantly decreased

Question: What about the “Proliferation (number of EdU+ cells per field)” value [1, 6] of the same molecule?
Answer: decreased proliferation

Question: What about the “Proliferation (number of EdU+ cells per field)” value [2, 5] of the same molecule?
Answer: no effect on proliferation

Question: And the “Proliferation (number of EdU+ cells per field)” value [2, 6]?
Answer: decreased proliferation
